Measured values as given in patent US20230312759A1, “BISPECIFIC ANTIBODY AGAINST CD3 AND CD20 IN COMBINATION THERAPY FOR TREATING DIFFUSE LARGE B-CELL LYMPHOMA” (GENMAB A/S, priority 2020, published 2023).

How the values were obtained:
SU-DHL-4 cells = format: cell-based; details: SU-DHL-4, with T cells, 48 hours; epcoritamab 0.01 pg/mL-100 ng/mL; gemcitabine, oxaliplatin at EC30 concentrations
Experimental: (§1) Briefly, human Burkitt lymphoma (Raji) and DLBCL (SU-DHL-4) cell lines were used as target cells. Cells were cultured in culture medium (RPMI 1640 with HEPES and L-Glutamine supplemented with 10% heat-inactivated donor bovine serum with iron, and 1% [v/v]penicillin/streptomycin) to which 2 mM L-glutamine and 1 mM sodium pyruvate were added, at 37° C., 5% CO2. T cells, isolated from human healthy donor buffy coats (Sanquin) by negative selection using the RosetteSep™ Human T Cell Enrichment Cocktail (Stemcell Technologies), followed by density centrifugation over a Ficoll gradient, both according to the manufacturer's instructions, were used as effector cells. Isolated cells were washed twice in phosphate buffered saline (PBS) and counted using acridine orange/propidium iodide (AO/PI) viability staining solution (Nexcelom Bioscience) on a Cellometer® Auto 2000 Cell Viability Counter. […] B-cell viability and T-cell activation were measured by flow cytometry (count of CD22-positive cells; expression of the T-cell activation markers CD69, CD25, programmed cell death protein 1 (PD-1), and CD107 [lysosomal associated membrane protein 1; LAMP-1] on CD4+ and CD8+ T cells). Absolute cell numbers were determined by adding Accucheck Counting beads (100 μL/well) (Thermofisher) and calculated as follows:
(§2) Correction factor=([bead count1+bead count2]/average bead countplate)
(§3) Absolute cell number=[cell countsample/correction factor]
(§4) The percentage cytotoxicity was calculated as follows:
(§5) % cytotoxicity=100−([absolute cell numbersample/absolute cell numberno antibody]×100%)

Raji cells = format: cell-based; details: with T cells, 48 hours, epcoritamab 0.01 pg/mL-100 ng/mL, gemcitabine, oxaliplatin at EC30 concentrations
Experimental: as §1, §2, §3, §4, §5

[1] = system: T cells incubated with Raji cells; assay: In vitro T-cell activation assay, T cells incubated with Raji cells; format: cell-based, human; details: Raji target cells, 48 hours
Experimental: as §1, with “follows: […]” for “follows:”

[2] = system: T cells incubated with SU-DHL-4 cells; assay: In vitro T-cell activation assay, T cells incubated with SU-DHL-4 cells; format: cell-based, human; details: SU-DHL-4 target cells, 48 hours
Experimental: as §1, with “follows: […]” for “follows:”

R/R B-NHL = assay: Ongoing clinical trial of epcoritamab monotherapy (NCT03625037); format: in vivo, human; details: R/R B-NHL patients, preliminary data
Excerpt: Summary of Ongoing Clinical Trial with Epcoritamab Epcoritamab as monotherapy is currently in a clinical trial for the treatment of relapsed/refractory (R/R) B-NHL (ClinicalTrials.gov Identifier: NCT03625037).

[3] = epcoritamab 0.01 pg/mL-100 ng/mL, flow cytometry
[4] = gemcitabine 1 nM, oxaliplatin 0.3 μM

Nc1ccn(C2OC(CO)C(O)C2(F)F)c(=O)n1 (centres unmarked) [gemcitabine, 4-amino-1-[3,3-difluoro-4-hydroxy-5-(hydroxymethyl)oxolan-2-yl]-1,2-dihydropyrimidin-2-one]
cytotoxicity of B cells (decrease in the number of viable B cells) (SU-DHL-4 cells): induced cytotoxicity of B cells
cytotoxicity of B cells (decrease in the number of viable B cells) (Raji cells): induced cytotoxicity of B cells

O=C1[O][Pt]2([NH][C@@H]3CCCC[C@H]3[NH]2)[O]C1=O [oxaliplatin, [(1R,2R)-cyclohexane-1,2-diamine](ethanedioato-O,O′)platinum(II)]
cytotoxicity of B cells (decrease in the number of viable B cells) (SU-DHL-4 cells): induced cytotoxicity of B cells
cytotoxicity of B cells (decrease in the number of viable B cells) (Raji cells): induced cytotoxicity of B cells

epcoritamab: IgG1 bispecific CD3×CD20 antibody; heavy and light chains of SEQ ID NOs: 24 and 25 (CD3 arm), 26 and 27 (CD20 arm); CAS 2134641-34-0
T-cell activation (upregulation of CD69, CD25, PD-1 and LAMP-1 expression) [1, 3]: concentration-dependent activation of both CD4+ (data not shown) and CD8+ T cells
Epcoritamab-induced T-cell activation in the presence of gemcitabine, oxaliplatin, or the combination [1, 4]: not affected
T-cell activation (upregulation of CD69, CD25, PD-1 and LAMP-1 expression) [2, 3]: concentration-dependent activation of both CD4+ (data not shown) and CD8+ T cells
Epcoritamab-induced T-cell activation in the presence of gemcitabine, oxaliplatin, or the combination [2, 4]: not affected
tolerated dose (R/R B-NHL): at least 48 mg
cytotoxicity of B cells (decrease in the number of viable B cells) (SU-DHL-4 cells): concentration-dependent T-cell-mediated cytotoxicity
cytotoxicity of B cells (decrease in the number of viable B cells) (Raji cells): concentration-dependent T-cell-mediated cytotoxicity
